Source: ChEMBL document CHEMBL3611999, “Bifunctional compounds targeting both D2 and non-α7 nACh receptors: design, synthesis and pharmacological characterization” (Eur J Med Chem, 2015)
Activity calls are given as the source filed them. No cut-off for these calls is given here.

Key:
[1] = target: Neuronal acetylcholine receptor; alpha4/beta2 (Rattus norvegicus, UniProt P09483+P12390); assay: Displacement of [3H]epibatidine from immunoimmobilized alpha4beta2 nAChR in Sprague-Dawley rat striatal membranes by liquid scintillation counting; set-up: species or system Sprangue-Dawley, Striatum, Membrane
Sequence of Neuronal acetylcholine receptor; alpha4/beta2 (Rattus norvegicus, UniProt P09483+P12390) (P09483 whole entry): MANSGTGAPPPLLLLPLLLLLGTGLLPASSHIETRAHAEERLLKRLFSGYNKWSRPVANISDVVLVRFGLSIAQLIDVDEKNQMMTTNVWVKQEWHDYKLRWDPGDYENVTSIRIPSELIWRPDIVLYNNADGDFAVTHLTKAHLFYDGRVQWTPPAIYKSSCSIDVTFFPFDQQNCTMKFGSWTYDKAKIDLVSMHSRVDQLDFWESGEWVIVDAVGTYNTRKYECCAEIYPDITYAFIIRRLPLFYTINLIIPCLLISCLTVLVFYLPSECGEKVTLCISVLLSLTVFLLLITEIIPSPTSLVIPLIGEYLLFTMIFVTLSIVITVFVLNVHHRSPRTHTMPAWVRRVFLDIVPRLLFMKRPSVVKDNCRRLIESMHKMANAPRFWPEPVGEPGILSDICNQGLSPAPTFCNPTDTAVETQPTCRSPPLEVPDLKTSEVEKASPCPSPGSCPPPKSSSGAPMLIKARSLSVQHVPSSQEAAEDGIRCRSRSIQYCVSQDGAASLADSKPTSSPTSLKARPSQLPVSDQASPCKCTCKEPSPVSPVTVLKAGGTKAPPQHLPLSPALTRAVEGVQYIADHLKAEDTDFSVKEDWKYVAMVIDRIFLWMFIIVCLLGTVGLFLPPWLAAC
Sequence of Neuronal acetylcholine receptor; alpha4/beta2 (Rattus norvegicus, UniProt P09483+P12390) (P12390 whole entry): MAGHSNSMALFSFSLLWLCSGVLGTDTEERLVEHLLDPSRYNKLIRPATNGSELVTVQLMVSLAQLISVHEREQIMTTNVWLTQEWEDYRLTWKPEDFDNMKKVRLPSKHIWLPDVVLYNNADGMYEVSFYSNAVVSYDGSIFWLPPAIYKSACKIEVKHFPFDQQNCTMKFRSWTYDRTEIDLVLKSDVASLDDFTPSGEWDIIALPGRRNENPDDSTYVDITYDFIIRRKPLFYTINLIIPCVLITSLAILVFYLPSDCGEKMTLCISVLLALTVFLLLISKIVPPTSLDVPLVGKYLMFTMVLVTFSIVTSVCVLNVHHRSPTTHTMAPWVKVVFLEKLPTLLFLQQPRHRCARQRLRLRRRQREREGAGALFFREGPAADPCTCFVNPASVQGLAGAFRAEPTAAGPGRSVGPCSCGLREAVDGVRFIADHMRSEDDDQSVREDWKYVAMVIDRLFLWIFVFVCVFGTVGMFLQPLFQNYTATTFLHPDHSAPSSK

[2] = target: Neuronal acetylcholine receptor subunit alpha-7 (Rattus norvegicus, UniProt Q05941); assay: Displacement of [125I]alpha-bungarotoxin from alpha7 nAChR in Sprague-Dawley rat hippocampus membrane homogenates by gamma counting; set-up: species or system Sprangue-Dawley
Sequence of Neuronal acetylcholine receptor subunit alpha-7 (Q05941 whole entry): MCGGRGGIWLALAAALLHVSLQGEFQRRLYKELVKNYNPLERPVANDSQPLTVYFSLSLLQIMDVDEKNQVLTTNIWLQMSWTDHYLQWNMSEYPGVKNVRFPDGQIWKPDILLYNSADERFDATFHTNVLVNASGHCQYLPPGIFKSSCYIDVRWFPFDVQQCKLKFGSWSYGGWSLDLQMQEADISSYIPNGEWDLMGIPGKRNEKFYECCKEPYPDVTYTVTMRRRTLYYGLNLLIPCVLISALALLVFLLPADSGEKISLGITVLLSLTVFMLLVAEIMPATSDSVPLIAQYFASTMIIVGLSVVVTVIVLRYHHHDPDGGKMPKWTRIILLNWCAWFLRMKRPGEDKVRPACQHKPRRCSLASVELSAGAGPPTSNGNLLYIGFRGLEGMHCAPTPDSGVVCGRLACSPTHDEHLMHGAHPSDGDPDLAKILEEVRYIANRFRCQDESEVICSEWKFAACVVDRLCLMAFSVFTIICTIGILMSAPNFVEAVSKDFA

[3] = Antagonist activity at nAChR in Sprague-Dawley rat striatal slices assessed as inhibition of nicotine-induced [3H]-dopamine release; conditions: Sprangue-Dawley
[4] = target: T1, Neuronal acetylcholine receptor; alpha4/beta2 (Homo sapiens, UniProt P17787+P43681); assay: Antagonist activity at human alpha4beta2 nAChR expressed in HEK293 cells assessed as inhibition of acetylcholine-induced inward current at holding potential of -70 mV by patch clamp technique; assay type: cell-based
T1 sequence (P17787 whole entry): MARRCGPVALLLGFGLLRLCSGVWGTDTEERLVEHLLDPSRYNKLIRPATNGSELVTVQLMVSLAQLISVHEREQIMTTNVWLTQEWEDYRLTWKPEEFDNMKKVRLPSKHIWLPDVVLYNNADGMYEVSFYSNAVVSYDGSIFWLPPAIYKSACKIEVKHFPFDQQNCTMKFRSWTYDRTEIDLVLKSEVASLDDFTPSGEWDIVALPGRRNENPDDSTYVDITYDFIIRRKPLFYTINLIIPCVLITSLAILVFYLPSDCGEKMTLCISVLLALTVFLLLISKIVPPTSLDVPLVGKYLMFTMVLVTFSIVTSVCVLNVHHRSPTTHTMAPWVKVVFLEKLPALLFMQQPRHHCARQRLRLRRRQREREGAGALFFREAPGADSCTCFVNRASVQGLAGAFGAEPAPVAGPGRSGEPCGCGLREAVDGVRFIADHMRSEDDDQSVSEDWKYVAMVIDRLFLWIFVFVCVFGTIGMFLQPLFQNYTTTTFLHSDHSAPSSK
T1 sequence (P43681 whole entry): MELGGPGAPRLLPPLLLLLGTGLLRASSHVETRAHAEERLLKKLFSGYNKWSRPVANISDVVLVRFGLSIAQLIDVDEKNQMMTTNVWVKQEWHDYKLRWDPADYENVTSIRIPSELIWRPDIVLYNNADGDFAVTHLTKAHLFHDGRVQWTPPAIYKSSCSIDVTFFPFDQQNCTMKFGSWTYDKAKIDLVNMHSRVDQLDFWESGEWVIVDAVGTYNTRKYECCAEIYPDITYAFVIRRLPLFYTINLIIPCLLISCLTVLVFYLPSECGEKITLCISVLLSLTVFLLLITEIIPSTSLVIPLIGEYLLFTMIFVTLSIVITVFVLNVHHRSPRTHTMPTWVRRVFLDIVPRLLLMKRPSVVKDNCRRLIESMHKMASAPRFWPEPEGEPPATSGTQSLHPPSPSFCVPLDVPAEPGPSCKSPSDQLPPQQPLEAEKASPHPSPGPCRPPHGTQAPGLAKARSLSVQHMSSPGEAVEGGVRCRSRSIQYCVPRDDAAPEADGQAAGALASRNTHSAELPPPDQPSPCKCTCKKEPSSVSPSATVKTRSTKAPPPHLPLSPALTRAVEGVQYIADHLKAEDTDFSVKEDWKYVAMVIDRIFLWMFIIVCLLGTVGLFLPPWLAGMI

[5] = target: T1, Neuronal acetylcholine receptor; alpha4/beta2; assay: Partial agonist activity at human alpha4beta2 nAChR expressed in HEK293 cells assessed as inward current at holding potential of -70 mV by patch clamp technique relative to acetylcholine; assay type: cell-based; set-up: concentration or dose not given beside the values
Rattus norvegicus [6] = species: Rattus norvegicus; assay: Agonist activity at nAChR in Sprague-Dawley rat striatal slices assessed as induction of [3H]-dopamine release; conditions: Sprangue-Dawley
[7] = target: T1, Neuronal acetylcholine receptor; alpha4/beta2; assay: Binding affinity to alpha4beta2 nAChR (unknown origin); assay type: protein-complex assay
Rattus norvegicus [8] = species: Rattus norvegicus; assay: Agonist activity at nAChR in Sprague-Dawley rat striatal slices assessed as induction of [3H]-dopamine release at 25 uM; conditions: Sprangue-Dawley
Rattus norvegicus [9] = species: Rattus norvegicus; assay: Antagonist activity at nAChR in Sprague-Dawley rat striatal slices assessed as inhibition of nicotine-induced [3H]-dopamine release at 10 uM; conditions: Sprangue-Dawley
[10] = target: T1, Neuronal acetylcholine receptor; alpha4/beta2; assay: Agonist activity at alpha4beta2 nAChR (unknown origin) expressed in HEK293 cells assessed as increase of ERK1/2 phosphorylation at 10 uM after 5 mins by Western blotting; assay type: cell-based
D(2) dopamine receptor = D(2) dopamine receptor (Rattus norvegicus, UniProt P61169); assay: Displacement of [3H]raclopride from dopamine D2 receptor in Sprague-Dawley rat striatal membranes after 30 mins; set-up: species or system Sprangue-Dawley, Striatum, Membrane
Sequence of D(2) dopamine receptor (P61169 whole entry): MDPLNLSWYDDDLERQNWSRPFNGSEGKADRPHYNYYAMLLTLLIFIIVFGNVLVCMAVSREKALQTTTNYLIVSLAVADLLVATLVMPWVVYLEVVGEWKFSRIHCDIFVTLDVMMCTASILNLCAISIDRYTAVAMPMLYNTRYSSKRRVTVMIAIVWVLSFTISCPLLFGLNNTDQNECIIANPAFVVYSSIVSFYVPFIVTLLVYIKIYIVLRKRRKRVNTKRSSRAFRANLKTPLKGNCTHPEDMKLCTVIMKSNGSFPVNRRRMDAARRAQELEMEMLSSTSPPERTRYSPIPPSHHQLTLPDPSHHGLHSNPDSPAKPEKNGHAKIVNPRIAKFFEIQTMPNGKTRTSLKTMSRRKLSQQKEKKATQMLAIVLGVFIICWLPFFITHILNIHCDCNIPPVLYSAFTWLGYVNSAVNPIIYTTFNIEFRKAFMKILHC

[11] = target: Neuronal acetylcholine receptor; alpha4/beta2 (Rattus norvegicus) (UniProt P09483+P12390); assay: Ratio of NHNB Ki to compound Ki for immunoimmobilized alpha4beta2 nAChR in Sprague-Dawley rat striatal membranes; conditions: Sprangue-Dawley
[12] = target: Neuronal acetylcholine receptor subunit alpha-6/beta-3 (Rattus norvegicus) (UniProt P12391+P43143); assay: Ratio of NHNB Ki to compound Ki for immunoimmobilized alpha6beta2 nAChR in Sprague-Dawley rat striatal membranes; conditions: Sprangue-Dawley
D(3) dopamine receptor = D(3) dopamine receptor (Homo sapiens, UniProt P35462); assay: Displacement of [3H]raclopride from dopamine D3 receptor (unknown origin) expressed in HEK293 cells after 30 mins; assay type: cell-based
Sequence of D(3) dopamine receptor (P35462 whole entry): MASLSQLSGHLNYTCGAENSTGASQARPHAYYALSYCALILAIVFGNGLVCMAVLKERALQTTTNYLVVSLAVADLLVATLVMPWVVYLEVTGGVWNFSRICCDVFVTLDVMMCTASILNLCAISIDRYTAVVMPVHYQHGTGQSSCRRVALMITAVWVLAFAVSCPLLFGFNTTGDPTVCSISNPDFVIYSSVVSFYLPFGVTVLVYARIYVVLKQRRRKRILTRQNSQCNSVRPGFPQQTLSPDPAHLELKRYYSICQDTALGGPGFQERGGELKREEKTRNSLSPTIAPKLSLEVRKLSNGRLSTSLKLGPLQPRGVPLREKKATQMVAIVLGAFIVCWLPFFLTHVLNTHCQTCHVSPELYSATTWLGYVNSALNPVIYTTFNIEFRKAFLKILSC

[13] = target: Mitogen-activated protein kinase; ERK1/ERK2 (Homo sapiens) (UniProt P27361+P28482); assay: Induction of ERK1/2 phosphorylation in human HEK293 cells at 10 uM after 5 mins by Western blotting; assay type: cell-based
Sequence of Mitogen-activated protein kinase; ERK1/ERK2 (Homo sapiens) (P27361 whole entry, looked up): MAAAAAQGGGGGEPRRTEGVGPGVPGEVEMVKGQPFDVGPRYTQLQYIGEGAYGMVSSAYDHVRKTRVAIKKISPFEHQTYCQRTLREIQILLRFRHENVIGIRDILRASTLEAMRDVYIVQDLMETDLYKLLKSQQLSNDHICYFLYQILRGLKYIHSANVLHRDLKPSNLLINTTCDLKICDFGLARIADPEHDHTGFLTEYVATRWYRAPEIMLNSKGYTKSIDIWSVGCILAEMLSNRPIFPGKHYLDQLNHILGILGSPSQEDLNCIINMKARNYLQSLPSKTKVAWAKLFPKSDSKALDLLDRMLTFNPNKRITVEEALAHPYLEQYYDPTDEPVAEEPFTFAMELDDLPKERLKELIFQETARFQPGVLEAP
Sequence of Mitogen-activated protein kinase; ERK1/ERK2 (Homo sapiens) (P28482 whole entry, looked up): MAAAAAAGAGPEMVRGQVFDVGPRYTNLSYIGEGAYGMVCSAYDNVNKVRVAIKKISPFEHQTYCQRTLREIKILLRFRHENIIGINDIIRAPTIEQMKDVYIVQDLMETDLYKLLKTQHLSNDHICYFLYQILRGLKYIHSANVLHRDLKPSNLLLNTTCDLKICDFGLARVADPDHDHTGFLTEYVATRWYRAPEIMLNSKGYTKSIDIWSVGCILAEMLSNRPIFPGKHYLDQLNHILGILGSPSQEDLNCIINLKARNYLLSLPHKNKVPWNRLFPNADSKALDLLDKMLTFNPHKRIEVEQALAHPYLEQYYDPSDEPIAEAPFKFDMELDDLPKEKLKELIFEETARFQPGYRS

[14] = target: T1, Neuronal acetylcholine receptor; alpha4/beta2; assay: Antagonist activity at alpha4beta2 nAChR (unknown origin) expressed in HEK293 cells assessed as reduction of nicotine-induced ERK1/2 phosphorylation at 10 uM treated 30 mins before nicotine addition by Western blotting; assay type: cell-based
[15] = target: D(2) dopamine receptor (Homo sapiens) (UniProt P14416); assay: Partial agonist activity at dopamine D2 receptor (unknown origin) expressed in HEK293 cells assessed as reduction of quinpirole-induced ERK1/2 phosphorylation at 10 uM treated 30 mins before quinpirole addition by Western blotting; assay type: cell-based; set-up: scale not given: the % may be the effect or the level left
Sequence of D(2) dopamine receptor (Homo sapiens) (P14416 whole entry): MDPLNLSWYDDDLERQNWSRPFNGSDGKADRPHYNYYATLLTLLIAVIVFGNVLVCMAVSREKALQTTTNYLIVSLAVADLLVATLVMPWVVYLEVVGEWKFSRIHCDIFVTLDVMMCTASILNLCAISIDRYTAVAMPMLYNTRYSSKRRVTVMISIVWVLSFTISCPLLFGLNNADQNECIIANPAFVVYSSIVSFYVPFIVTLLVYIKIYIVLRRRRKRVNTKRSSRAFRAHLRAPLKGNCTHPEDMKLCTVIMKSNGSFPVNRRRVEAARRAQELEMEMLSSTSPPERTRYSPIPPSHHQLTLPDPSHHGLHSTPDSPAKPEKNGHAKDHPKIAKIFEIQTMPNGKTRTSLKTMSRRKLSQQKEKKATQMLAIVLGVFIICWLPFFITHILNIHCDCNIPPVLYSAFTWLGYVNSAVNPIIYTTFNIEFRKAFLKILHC

Rattus norvegicus [16] = species: Rattus norvegicus; assay: Agonist activity at nAChR in Sprague-Dawley rat striatal slices assessed as induction of [3H]-dopamine release at 10 uM; conditions: Sprangue-Dawley
Rattus norvegicus [17] = species: Rattus norvegicus; assay: Antagonist activity at nAChR in Sprague-Dawley rat striatal slices assessed as inhibition of nicotine-induced [3H]-dopamine release at 5 uM; conditions: Sprangue-Dawley

Row | SMILES | Ki [1] [nM] | Ki [2] [nM] | IC50 [3] [nM] | IC50 [4] [nM] | Activity [5] [%] | Activity (Rattus norvegicus [6]) | Activity [10] | Ki (D(2) dopamine receptor) [nM] | Ki (D(3) dopamine receptor) [nM] | Activity [13] | inhibition [14] [%] | other results
1 | CCCCCCNCC1CCc2ccc(O)cc2O1 (stereo not given) | > 100000 | > 100000 | – | – | – | – | – | – | – | – | – | –
2 | CCCNCC1CCc2ccc(O)cc2O1 (stereo not given) | > 100000 | > 100000 | – | – | – | – | – | – | – | – | – | –
3 | CO[C@H]1CC=C2CCN3CCC4=C(CC(=O)OC4)[C@]23C1 | – | – | 2200 | – | – | – | – | – | – | – | – | –
4 | CCCCC[n+]1cccc([C@@H]2CCCN2C)c1 | 3940 | > 100000 | 15300 | 90 | 27 | – | – | – | – | – | – | –
5 | CCCCCC[n+]1cccc([C@@H]2CCCN2C)c1 | 4710 | > 100000 | 8900 | 300 | 18 | inactive | – | – | – | – | – | –
6 | CCCCCCCCCCCC[n+]1cccc([C@@H]2CCCN2C)c1 | 1410 | 83000 | 500 | – | 9 | – | – | – | – | – | – | Ki [7]: 0.14 nM; Activity (Rattus norvegicus [8]): Active
7 | CCCCCCCCCC[n+]1cccc([C@@H]2CCCN2C)c1 | 8690 | 84000 | – | 200 | 1.3 | Active | – | – | – | – | – | Ki [7]: 0.09 nM; inhibition (Rattus norvegicus [9]): inactive
8 | CN1CCC[C@H]1c1cccnc1 | – | – | – | – | – | – | Active | – | – | – | – | –
9 | CN1CCC[C@H]1c1ccc[n+](CCCCCNCC2CCc3ccc(O)cc3O2)c1 (mixture of isomers) | 2270 | 11000 | 2300 | 200 | 13 | inactive | inactive | 120 | 43 | inactive | 55 | Ratio Ki [11]: 43; Ratio Ki [12]: 30
10 | CN1CCC[C@H]1c1ccc[n+](CCCCCCNCC2CCc3ccc(O)cc3O2)c1 (mixture of isomers) | 109 | 13000 | 6900 | 800 | 15 | inactive | inactive | 97 | 15.7 | inactive | 65 | Activity [15]: 40%
11 | CN1CCC[C@H]1c1ccc[n+](CCCCCCCCCCNCC2CCc3ccc(O)cc3O2)c1 (mixture of isomers) | 1060 | 43000 | 10400 | 100 | 4 | – | inactive | 14 | 3.3 | inactive | 57 | Ratio Ki [11]: 43; Ratio Ki [12]: 30
12 | CN1CCC[C@H]1c1ccc[n+](CCCCCCCCCCCCNCC2CCc3ccc(O)cc3O2)c1 (mixture of isomers) | 2750 | 65000 | – | – | 8.3 | – | inactive | 20 | 9.9 | inactive | 57 | Ratio Ki [11]: 43; Ratio Ki [12]: 30; Activity (Rattus norvegicus [16]): Active; inhibition (Rattus norvegicus [17]): 10%
13 | CNC1(C)C2CCC(C2)C1(C)C (stereo not given) [MECAMYLAMINE] | – | – | 300 | – | – | – | – | – | – | – | – | –
